# Literature values in patent publication US5965423A, “Human lysophospholipase” (Incyte Pharmaceuticals, Inc., priority 1998, dated 1999).
# Target: T1, monomeric, 24 kD lysophospholipase (LPL) from rat liver (Rattus norvegicus, UniProt P70470)
# T1 construct: isolated a monomeric, 24 kD LPL from rat liver; host or cells: rat liver (tissue-purified enzyme, Sugimoto et al. 1996)
# Conditions: substrate 1-palmitoyl-glycero-3-phosphocholine; substrate dependence curve sigmoidal
# T1 sequence (P70470 whole entry): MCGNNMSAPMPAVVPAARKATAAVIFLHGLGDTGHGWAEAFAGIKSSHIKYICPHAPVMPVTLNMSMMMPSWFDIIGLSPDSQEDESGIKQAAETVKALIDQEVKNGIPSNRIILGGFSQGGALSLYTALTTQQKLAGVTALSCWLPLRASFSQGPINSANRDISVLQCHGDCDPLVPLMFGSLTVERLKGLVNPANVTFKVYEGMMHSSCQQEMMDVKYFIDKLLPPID
smiles,measurement,value
CCCCCCCCCCCCCCCC(=O)OCC(O)COP(=O)([O-])OCC[N+](C)(C)C (centres unmarked) [1-palmitoyl-glycero-3-phosphocholine],Km,170 µM
same,Vmax,1.55 µM/min/mg
